Test results taken from patent publication US20220211692A1, “Modulators of the Cystic Fibrosis Transmembrane Conductance Regulator Protein and Methods of Use” (AbbVie Global Enterprises Ltd., priority 2021, published 2022).
pEC50: −log10 of the molar value. Read-outs that look alike come from different tables or passages of the source.

What was measured:
F508del/F508del CFTR = target: T1, F508del/F508del CFTR (Homo sapiens, UniProt P13569, DEL508-508); assay: Trans-Epithelial Current Clamp (TECC) assay using primary human bronchial epithelial cells; type: cell-based; details: for Emax (% Dual): maximum percent activity relative to positive control (co-corrector 0.15 μM + potentiator 0.45 μM = 100%); for pEC50: primary hBE cells F508del/F508del, test corrector with co-corrector and potentiator, 18-24 hours, equivalent CFTR current
T1 construct: cells isolated from CF patients with the homozygous mutation; endogenous in cells; host or cells: primary human bronchial epithelial (hBE) cells from CF patients homozygous for F508del
T1 sequence (P13569 with tags, fused parts or gaps DEL508-508): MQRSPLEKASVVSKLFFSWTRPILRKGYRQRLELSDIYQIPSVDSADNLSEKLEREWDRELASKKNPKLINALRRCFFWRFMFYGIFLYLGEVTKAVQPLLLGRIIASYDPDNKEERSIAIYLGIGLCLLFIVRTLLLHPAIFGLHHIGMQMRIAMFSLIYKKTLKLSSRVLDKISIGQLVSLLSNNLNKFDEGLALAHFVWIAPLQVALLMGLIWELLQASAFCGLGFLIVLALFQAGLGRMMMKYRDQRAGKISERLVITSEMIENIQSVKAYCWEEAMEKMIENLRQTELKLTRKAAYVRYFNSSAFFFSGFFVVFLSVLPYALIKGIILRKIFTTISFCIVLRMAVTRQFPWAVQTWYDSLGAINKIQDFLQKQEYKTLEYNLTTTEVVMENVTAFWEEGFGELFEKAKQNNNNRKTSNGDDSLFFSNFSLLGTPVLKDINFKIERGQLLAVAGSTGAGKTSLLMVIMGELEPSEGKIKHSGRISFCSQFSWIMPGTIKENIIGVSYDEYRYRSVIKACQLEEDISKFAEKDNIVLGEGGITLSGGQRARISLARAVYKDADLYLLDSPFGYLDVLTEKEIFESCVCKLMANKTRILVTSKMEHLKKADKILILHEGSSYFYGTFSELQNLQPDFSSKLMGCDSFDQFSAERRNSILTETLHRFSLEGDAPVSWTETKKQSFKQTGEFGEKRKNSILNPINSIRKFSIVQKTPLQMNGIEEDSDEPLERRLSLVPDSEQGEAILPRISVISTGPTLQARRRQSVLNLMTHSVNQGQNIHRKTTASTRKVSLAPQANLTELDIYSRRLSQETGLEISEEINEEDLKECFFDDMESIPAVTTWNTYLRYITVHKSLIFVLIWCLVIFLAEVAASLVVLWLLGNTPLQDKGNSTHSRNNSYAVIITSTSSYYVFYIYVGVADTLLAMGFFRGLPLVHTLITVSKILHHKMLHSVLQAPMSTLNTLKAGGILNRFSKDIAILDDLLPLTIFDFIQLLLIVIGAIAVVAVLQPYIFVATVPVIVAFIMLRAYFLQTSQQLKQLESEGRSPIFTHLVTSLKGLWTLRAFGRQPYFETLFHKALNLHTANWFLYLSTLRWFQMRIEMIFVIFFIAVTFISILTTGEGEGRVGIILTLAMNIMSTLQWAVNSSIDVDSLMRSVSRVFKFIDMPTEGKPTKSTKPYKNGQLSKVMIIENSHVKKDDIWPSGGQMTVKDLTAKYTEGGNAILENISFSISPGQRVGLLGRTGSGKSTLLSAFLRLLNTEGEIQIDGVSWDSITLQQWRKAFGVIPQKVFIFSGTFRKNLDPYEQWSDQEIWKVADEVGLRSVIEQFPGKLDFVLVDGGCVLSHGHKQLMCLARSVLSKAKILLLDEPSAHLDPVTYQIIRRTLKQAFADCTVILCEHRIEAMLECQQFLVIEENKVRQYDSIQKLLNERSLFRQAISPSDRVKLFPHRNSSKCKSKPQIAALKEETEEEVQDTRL
Description: A cell-based assay was developed using the primary human bronchial epithelial cells (hBE cells) with F508del/F508del CFTR and other mutations.
Primary human bronchial epithelial (hBE) cells from CFTR patients with homozygous F508del/F508del mutation were expanded from 1×10^6 to 250×10^6 cells (Neuberger, T et al., 2011, Methods Mol Biol 741:39-54). For this purpose, cells isolated from CF patients with the homozygous mutation, procured from the CF center tissue procurement and cell culture core at the Marsico Lung Institute at UNC (Randell), the Cystic Fibrosis translational research center at McGill University (University), and Rosalind Franklin University Medical School (RFUMS) were seeded onto 24 well Corning (Cat #3378) filter plates that were coated with 3T3 conditioned media and grown at an air-liquid interface for 35 days using an Ultroser® G supplemented differentiation media. All the primary human bronchial epithelial cells were collected in accordance with institutional review board approval protocols. Apical surface mucus was removed 72 hours before the experiment by incubating the apical surface of the cells for 30 minutes with 3 mM dithiothreitol (DTT) prepared in Dulbecco's phosphate buffered saline (DPBS) with Ca^2+ and Mg^2+. This was followed with aspiration of the mucus from the apical surface along with DPBS. The apical surface was re-washed with phosphate buffered saline (PBS) incubated for 30 minutes followed with aspiration. These hBE cells were then incubated with the desired concentrations of the test C2 corrector compounds along with co-corrector, 4-[(2R,4R)-4-({[1-(2,2-difluoro-1,3-benzodioxol-5-yl)cyclopropyl]carbonyl}amino)-7-(difluoromethoxy)-3,4-dihydro-2H-chromen-2-yl]benzoic acid and potentiator, (5-{3-amino-5-[4-(trifluoromethoxy)benzene-1-sulfonyl]pyridin-2-yl}-1,3,4-oxadiazol-2-yl)methanol, for 18-24 hours at 37° C., 5% CO2. The desired concentrations of the correctors and potentiator compounds were prepared from the 10 mM stocks in differentiation media and were always applied on the basolateral side of the epithelial cells. We also used an assay format where a fixed concentration of potentiator was added chronically along with the corrector compounds. This chronic treatment with the potentiator helped eliminate any interaction that might happen with CFTR modulators (correctors and potentiators) and thereby determined the true efficacy of the modulator combinations reflective of clinical relevance.
The assay uses a Transepithelial Current Clamp (TECC) (Vu, C B et al., 2017; J Med Chem 60:458-473) instrument that can measure the functionality of the mutated channel by measuring the equivalent CFTR current (IEQ) generated by the polarized primary epithelial cells. We used a TECC-24 with a 24-channel electrode manifold allowing for the simultaneous measurement of the transepithelial voltage, VT, and transepithelial resistance, RT, under current clamp conditions, from 24 filters using a 24 well Costar filter plate. The design of the filters in the 24 well filter plates was exactly the same as the design of an individual Transwell filter used in the classical Ussing Chamber with a surface area of 0.33 cm^2. Each measured VT values were corrected for the electrode offset potential measured using buffer alone in a separate plate, and each measured RT values were then corrected for the combined solution series and empty filter resistances. The corrected VT and RT values were then used to calculate the equivalent current, IEQ using Ohm's law (IEQ=VT/RT). The area under the curve (AUC) for the time period between the forskolin peak IEQ response and at the time of bumetanide addition was also calculated using a one-third trapezoid method, in addition to calculating the IEQ. The assay was run in a 24-well format and all 24-wells were measured at the same time point giving a higher throughput for this assay. […]

F508delCFTR = target: T2, F508delCFTR (Homo sapiens, UniProt P13569, DEL508-508); assay: Cell Surface Expression-Horse Radish Peroxidase (CSE-HRP) assay in CFBE41o-F508delCFTR-HRP cells; type: cell-based; details: for pEC50: CFBE41o-F508delCFTR-HRP cells, 18-24 hours at 33° C.; for Emax / Maximum % activity (with co-corrector): normalized to on-plate positive control; for Emax: read-out: Maximum % activity (without co-corrector)
T2 construct: expressed in transfected cells; host or cells: CFBE41o- human lung derived epithelial cell line, doxycycline-induced expression
T2 sequence (P13569 with tags, fused parts or gaps DEL508-508): as above
Procedure: A cellular assay for measuring the F508delCFTR cell surface expression after correction with test compounds either without or with a co-corrector (2 μM of 3-[(2R,4R)-4-({[1-(2,2-difluoro-1,3-benzodioxol-5-yl)cyclopropyl]carbonyl}amino)-7-methoxy-3,4-dihydro-2H-chromen-2-yl]benzoic acid), was developed in human lung derived epithelial cell line (CFBE41o-) (Veit G et al, (2012) Mol Biol Cell. 23(21): 4188-4202). The development was achieved by expressing the F508delCFTR mutation along with a horseradish peroxidase (HRP) in the fourth exofacial loop, and then measuring the HRP activity using luminescence readout from these cells, CFBE41o-F508delCFTR-HIRP, that were incubated overnight with the test corrector compounds, either without or with the co-corrector. For this primary assay, the CFBE41o-F508delCFTR-HRP cells were plated in 384-well plates (Greiner Bio-one; Cat 781080) at 4,000 cells/well along with 0.5 μg/mL doxycycline to induce the F508delCFTR-HRP expression and further incubated at 37° C., […] for 68-72 hours. The test compounds were then added either without or with a co-corrector at the required concentrations and further incubated for 18-24 hours at 33° C. The highest concentration tested was 20 μM or 30 μM (GI-1 to GIII-36) with an 8-point concentration response curve using a 3-fold dilution in both the test compound without or with the co-corrector. Three replicate plates were run to determine one EC50. All plates contained negative controls (dimethyl sulfoxide, DMSO) and positive control (2 μM or 3 μM (GI-1 to GIII-36) of 3-[(2R,4R)-4-({[1-(2,2-difluoro-1,3-benzodioxol-5-yl)cyclopropyl]carbonyl}amino)-7-methoxy-3,4-dihydro-2H-chromen-2-yl]benzoic acid) as well as on-plate concentration response of the positive control. Post incubation, the plates were washed 5× times with Dulbecco's phosphate buffered saline (DPBS), followed by the addition of the HRP substrate, luminol (50 μL), and measuring the HRP activity using luminescence readout on EnVision® Multilabel Plate Reader (Perkin Elmer; product number 2104-0010). The raw counts from the experiment were analyzed using Accelrys® Assay Explorer v3.3.
Z′ greater than 0.5 was used as passing quality control criteria for the plates. The Z′ is defined as:
1−[3*SDPositive Control+3*SDNegative Control/Absolute(MeanPositive Control−MeanNegative Control)]
The % activity measured at each of the 8 test concentrations of the test compound added either without or with a co-corrector (2 μM or 3 μM (GI-1 to GIII-36) of 3-[(2R,4R)-4-({[1-(2,2-difluoro-1,3-benzodioxol-5-yl)cyclopropyl]carbonyl}amino)-7-methoxy-3,4-dihydro-2H-chromen-2-yl]benzoic acid) was normalized to the on-plate positive control using the following formulae:
% activity (Test compound without co-corrector)=[(test compound without co-corrector response−DMSO response)/(positive control response−DMSO response)]*100
% activity (Test compound with co-corrector)=[(test compound with co-corrector response−DMSO response)/(positive control response−DMSO response)]*100
The maximum % activity achieved for the test compound either without or with a co-corrector at any tested concentration is presented in Table 3 along with the respective EC50's calculated using the following general sigmoidal curve with variable Hill slope equation (described as Model 42 in the Accelrys® Assay Explorer v3.3 software):
General sigmoidal curve with concentration, response, top, bottom, EC50 and Hill slope. This model describes a sigmoidal curve with an adjustable baseline, a. The equation can be used to fit curves where response is either increasing or decreasing with respect to the independent variable, “x”.

[1] = with co-corrector 2 μM, read-out: EC50 (with co-corrector)
[2] = without co-corrector, read-out: EC50 (without co-corrector)

Row | Compound | Emax (% Dual) (F508del/F508del CFTR) | pEC50 (F508del/F508del CFTR) | pEC50 (F508delCFTR; [1]) | pEC50 (F508delCFTR; [2]) | Emax (F508delCFTR; without co-corrector) [%] | Maximum % activity (with co-corrector) (F508delCFTR; with co-corrector 2 μM) [%]
1 | CCOc1ccc(CC)cc1[C@@]1(C(=O)NS(=O)(=O)c2cccc3nc(C)ccc23)CCCO1 [Example 9, (2R)-2-(2-ethoxy-5-ethylphenyl)-N-(2-methylquinoline-5-sulfonyl)oxolane-2-carboxamide] | 256 | 7.47 | 6.08 | 5.78 | 865 | –
2 | CCc1ccc(Oc2ccccc2)c([C@@]2(C(=O)NS(=O)(=O)c3cccc4nc(C)ccc34)CCCO2)c1 [Example 23, (2R)-2-(5-ethyl-2-phenoxyphenyl)-N-(2-methylquinoline-5-sulfonyl)oxolane-2-carboxamide] | 241 | 7.70 | 6.32 | 5.97 | 726 | –
3 | CCc1ccc(Oc2ccccc2)c(C2(C(=O)NS(=O)(=O)c3cccc4nc(C)ccc34)CCCO2)c1 (stereo not drawn) [Example 17, 2-(5-ethyl-2-phenoxyphenyl)-N-(2-methylquinoline-5-sulfonyl)oxolane-2-carboxamide] | 229 | 7.94 | 5.81 | 5.58 | 931 | –
4 | CCOc1ccc(C)cc1[C@]1(C(=O)NS(=O)(=O)c2cccc3nc(C)ccc23)CCCO1 [Example 1, (2S)-2-(2-ethoxy-5-methylphenyl)-N-(2-methylquinoline-5-sulfonyl)oxolane-2-carboxamide] | 226 | 5.77 | 5.42 | 5.31 | 233 | 546
5 | CCc1ccc(Oc2cccnc2OC)c([C@]2(C(=O)NS(=O)(=O)c3cccc4nc(C)ccc34)CCCO2)c1 [Example 24, (2S)-2-{5-ethyl-2-[(2-methoxypyridin-3-yl)oxy]phenyl}-N-(2-methylquinoline-5-sulfonyl)oxolane-2-carboxamide] | 167 | < 6.10 | 5.60 | 5.44 | 141 | 449
6 | CCc1ccc(Oc2cccnc2OC)c([C@@]2(C(=O)NS(=O)(=O)c3cccc4nc(C)ccc34)CCCO2)c1 [Example 25, (2R)-2-{5-ethyl-2-[(2-methoxypyridin-3-yl)oxy]phenyl}-N-(2-methylquinoline-5-sulfonyl)oxolane-2-carboxamide] | 279 | 7.51 | 6.24 | 5.84 | 476 | 954

Now from value to compound:

Row | Emax (% Dual) (F508del/F508del CFTR) | pEC50 (F508del/F508del CFTR) | pEC50 (F508delCFTR; [1]) | pEC50 (F508delCFTR; [2]) | Emax (F508delCFTR; without co-corrector) [%] | Maximum % activity (with co-corrector) (F508delCFTR; with co-corrector 2 μM) [%] | Compound
7 | 239 | 7.58 | 6.70 | 6.33 | 470 | – | COc1ccccc1[C@@H]1CO[C@@](C(=O)NS(=O)(=O)c2cccc3nc(C)ccc23)(c2cc(C)ccc2OC)C1 [Example 39, (2R,4R)-2-(2-methoxy-5-methylphenyl)-4-(2-methoxyphenyl)-N-(2-methylquinoline-5-sulfonyl)oxolane-2-carboxamide]
8 | 283 | 7.93 | 6.48 | 6.28 | 509 | – | COc1ccc(C)cc1C1(C(=O)NS(=O)(=O)c2cccc3nc(C)ccc23)CCC(c2ccccc2)O1 (stereo in doubt) [Example 7, (2S,5S)-2-(2-methoxy-5-methylphenyl)-N-(2-methylquinoline-5-sulfonyl)-5-phenyloxolane-2-carboxamide]
9 | 229 | 7.44 | 6.36 | 6.21 | 386 | 911 | COc1ccc([C@H]2CO[C@@](C(=O)NS(=O)(=O)c3cccc4nc(C)ccc34)(c3cc(C)ccc3OC)C2)cc1 [Example 45, (2R,4S)-2-(2-methoxy-5-methylphenyl)-4-(4-methoxyphenyl)-N-(2-methylquinoline-5-sulfonyl)oxolane-2-carboxamide]
10 | 335 | 7.94 | 6.52 | 6.22 | 512 | – | COc1ccc([C@@H]2CO[C@@](C(=O)NS(=O)(=O)c3cccc4nc(C)ccc34)(c3cc(C)ccc3OC)C2)cc1 [Example 44, (2R,4R)-2-(2-methoxy-5-methylphenyl)-4-(4-methoxyphenyl)-N-(2-methylquinoline-5-sulfonyl)oxolane-2-carboxamide]
11 | 182 | 5.96 | 5.46 | 5.39 | 180 | 513 | COc1ccc(C)cc1[C@@]1(C(=O)NS(=O)(=O)c2cccc3nc(C)ccc23)C[C@H](OC)CO1 [Example 28, (2R,4S)-4-methoxy-2-(2-methoxy-5-methylphenyl)-N-(2-methylquinoline-5-sulfonyl)oxolane-2-carboxamide]
